Measured values reported in patent US8455688B2, “HDAC inhibitors” (Lixte Biotechnology, Inc., priority 2007, dated 2013).
≈ marks a conversion by molar mass, not a printed value. Entries after “also recorded” stand apart in the source; their conditions may differ. Read-outs that look alike come from different tables or passages of the source.

Columns and labels:
[1] = system: R. arrhizus; assay: Broth dilution antifungal susceptibility testing, R. arrhizus; format: cell-based, Rhizopus oryzae; conditions: Rhizopus arrhizus, 80% inhibition, read-out: minimum inhibitory concentration (MIC)
Description: (§1) A total of 23 isolates were tested to include 3 Candida albicans, 3 Candida glabrata, 3 Cryptococcus neoformans, 3 Aspergillus fumigatus, 3 Rhizopus oryzae, 3, Fusarium solani, 3 Pseudallescheria boydii, and 2 […]. All isolates were clinical isolates submitted to the Fungus Testing Laboratory for evaluation. Antifungal susceptibility testing was accomplished according to the methods outlined in the National Committee for Clinical Laboratory Standards, M-27A2, Reference Method for Broth Dilution Antifungal Susceptibility Testing of Yeasts; Approved Standard, and M38-A “Reference Method for Broth Dilution Antifungal Susceptibility Testing of Conidium-Forming Filamentous Fungi; Approved Standard”. This includes testing in RPMI-1640 with glutamine and without bicarbonate, an inoculum size of 0.5-2.5×10^3 for yeasts or […] for moulds, and incubation at 35° C. for 24 and 48 hours. […] Drug concentrations were 0.125-64 μg/ml. A 10 mg portion of each powder was weighed out and added to 1 ml of 100% DMSO for compound 205. The resulting concentration of […] was diluted to a working concentration of 6400 μg/ml for compound 205 in 100% DMSO. All subsequent dilutions were also made using the respective diluents. Final testing concentrations ranged from 0.125-64 μg/ml. The NCCLS recommended medium RPMI-1640 (Hardy Diagnostics, Santa Monica, Calif.) was utilized as the test medium. All isolates in this study were clinical isolates received in the Fungus Testing Laboratory for standard antifungal susceptibility testing and/or identification. Isolates, which were not sent for identification, were confirmed to assure testing integrity. A total of 23 were tested to include 3 Candida albicans, 3 Candida glabrata, 3 Cryptococcus neoformans, 3 Aspergillus fumigatus, 3 Rhizopus oryzae, 3, Fusarium solani, 3 Pseudallescheria boydii, and 2 […]. Minimum inhibitory concentrations (MIC) were determined at the first 24-hour interval where growth could be determined in the drug-free control tube.

[2] = system: cell line U-87; assay: Activity against the cell line U-87; format: cell-based, human; conditions: potency on an equimolar basis
[3] = system: T. rubrum; assay: Broth dilution antifungal susceptibility testing, T. rubrum; format: cell-based, Trichophyton rubrum; conditions: Trichophyton rubrum, 80% inhibition, read-out: minimum inhibitory concentration (MIC)
Description: as §1

[4] = system: CP Control; assay: Broth dilution antifungal susceptibility testing, CP Control; format: cell-based; conditions: read-out: minimum inhibitory concentration (MIC)
Description: as §1

[5] = system: F. solani; assay: Broth dilution antifungal susceptibility testing, F. solani; format: cell-based; conditions: Fusarium solani, 80% inhibition, read-out: minimum inhibitory concentration (MIC)
Description: as §1

[6] = system: GBM xenograft; assay: GBM xenograft tumor volume in SCID mice; format: in vivo; conditions: for inhibition of GBM xenograft tumor volume: tumor cells implanted subcutaneously, 0, 7, 14, 21 and 28 days
[7] = system: C. neoformans; assay: Broth dilution antifungal susceptibility testing, C. neoformans; format: cell-based; conditions: Cryptococcus neoformans, 50% reduction in turbidity, read-out: minimum inhibitory concentration (MIC)
Description: as §1

[8] = system: C. glabrata; assay: Broth dilution antifungal susceptibility testing, C. glabrata; format: cell-based, Candida glabrata; conditions: Nakaseomyces glabratus, 50% reduction in turbidity, read-out: minimum inhibitory concentration (MIC)
Description: as §1

[9] = system: U87 GBM xenografts; assay: Inhibition of U87 GBM xenografts; conditions: in vivo
[10] = system: S. apiospermum; assay: Broth dilution antifungal susceptibility testing, S. apiospermum; format: cell-based, Pseudallescheria boydii; conditions: Scedosporium apiospermum, 80% inhibition, read-out: minimum inhibitory concentration (MIC)
Description: as §1

[11] = system: C. albicans; assay: Broth dilution antifungal susceptibility testing, C. albicans; format: cell-based, Candida albicans; conditions: Candida albicans, 50% reduction in turbidity, read-out: minimum inhibitory concentration (MIC)
Description: as §1

[12] = system: A. fumigatus; assay: Broth dilution antifungal susceptibility testing, A. fumigatus; format: cell-based, Aspergillus fumigatus; conditions: Aspergillus fumigatus, 80% inhibition, read-out: minimum inhibitory concentration (MIC)
Description: as §1

[13] = 24 h, isolate 07-1870, 24 hours
[14] = 24 h, isolate 07-2044, 24 hours
[15] = 24 h, isolate 07-2078, 24 hours
[16] = 48 h, isolate 07-1870, 48 hours
[17] = 48 h, isolate 07-2044, 48 hours
[18] = 48 h, isolate 07-2078, 48 hours
[19] = 24 h, isolate 07-1743, 24 hours
[20] = 24 h, isolate 07-2055, 24 hours
[21] = 48 h, isolate 07-1743, 48 hours
[22] = 48 h, isolate 07-2055, 48 hours
[23] = 24 h, isolate 07-1399, 24 hours
[24] = 24 h, isolate 07-1755, 24 hours
[25] = 24 h, isolate 07-1867, 24 hours
[26] = 48 h, isolate 07-1399, 48 hours
[27] = 48 h, isolate 07-1755, 48 hours
[28] = 48 h, isolate 07-1867, 48 hours
[29] = 24 h, isolate 07-2665, 24 hours
[30] = 24 h, isolate 07-2737, 24 hours
[31] = 24 h, isolate 07-2829, 24 hours
[32] = 48 h, isolate 07-2665, 48 hours
[33] = 48 h, isolate 07-2737, 48 hours
[34] = 48 h, isolate 07-2829, 48 hours
[35] = 24 h, isolate 07-2964, 24 hours
[36] = 24 h, isolate 07-2965, 24 hours
[37] = 24 h, isolate 07-3013, 24 hours
[38] = 48 h, isolate 07-2964, 48 hours
[39] = 48 h, isolate 07-2965, 48 hours
[40] = 48 h, isolate 07-3013, 48 hours
[41] = 24 h, isolate 07-1333, 24 hours
[42] = 24 h, isolate 07-1502, 24 hours
[43] = 24 h, isolate 07-1601, 24 hours
[44] = 48 h, isolate 07-1333, 48 hours
[45] = 48 h, isolate 07-1502, 48 hours
[46] = 48 h, isolate 07-1601, 48 hours
[47] = 24 h, isolate 07-3006, 24 hours
[48] = 24 h, isolate 07-3011, 24 hours
[49] = 24 h, isolate 07-3012, 24 hours
[50] = 48 h, isolate 07-3006, 48 hours
[51] = 48 h, isolate 07-3011, 48 hours
[52] = 48 h, isolate 07-3012, 48 hours
[53] = 24 h, isolate 06-4126, 24 hours
[54] = 24 h, isolate 07-2039, 24 hours
[55] = 48 h, isolate 06-4126, 48 hours
[56] = 48 h, isolate 07-2039, 48 hours

CN(C)c1ccc(NC(=O)CCCCCNC(=O)c2ccccc2S)cc1 [Compound 206, 2-Mercapto-N-[5-(4-dimethylamino-3-yl-carbamoyl)pentyl]benzamide]
MIC [1, 13]: 32 µg/mL (≈ 83 µM)
MIC [1, 14]: 32 µg/mL (≈ 83 µM)
MIC [1, 15]: > 64 µg/mL
MIC [1, 16]: 64 µg/mL (≈ 166 µM)
MIC [1, 17]: 64 µg/mL (≈ 166 µM)
MIC [1, 18]: > 64 µg/mL
activity against the cell line U-87 [2]: most potent on an equimolar basis
MIC [3, 19]: 0.25 µg/mL (≈ 0.648 µM)
MIC [3, 20]: 0.25 µg/mL (≈ 0.648 µM)
MIC [3, 21]: 0.25 µg/mL (≈ 0.648 µM)
MIC [3, 22]: 0.25 µg/mL (≈ 0.648 µM)
MIC ([4]; 24 hours): 8 µg/mL (≈ 20.8 µM)
MIC ([4]; 48 hours): 64 µg/mL (≈ 166 µM)
MIC [5, 23]: > 64 µg/mL
MIC [5, 24]: > 64 µg/mL
MIC [5, 25]: 64 µg/mL (≈ 166 µM)
MIC [5, 26]: > 64 µg/mL
MIC [5, 27]: > 64 µg/mL
MIC [5, 28]: > 64 µg/mL
inhibition of GBM xenograft tumor volume [6]: inhibited the growth of GBM xenograft tumor volume
MIC [7, 29]: 16 µg/mL (≈ 41.5 µM)
MIC [7, 30]: 16 µg/mL (≈ 41.5 µM)
MIC [7, 31]: 64 µg/mL (≈ 166 µM)
MIC [7, 32]: 32 µg/mL (≈ 83 µM)
MIC [7, 33]: 32 µg/mL (≈ 83 µM)
MIC [7, 34]: 64 µg/mL (≈ 166 µM)
MIC [8, 35]: 32 µg/mL (≈ 83 µM)
MIC [8, 36]: 32 µg/mL (≈ 83 µM)
MIC [8, 37]: 32 µg/mL (≈ 83 µM)
MIC [8, 38]: > 64 µg/mL
MIC [8, 39]: > 64 µg/mL
MIC [8, 40]: > 64 µg/mL
inhibition of U87 GBM xenografts compared to control [9]: significant inhibition
MIC [10, 41]: 1 µg/mL (≈ 2.59 µM)
MIC [10, 42]: 8 µg/mL (≈ 20.8 µM)
MIC [10, 43]: 2 µg/mL (≈ 5.19 µM)
MIC [10, 44]: 2 µg/mL (≈ 5.19 µM)
MIC [10, 45]: 16 µg/mL (≈ 41.5 µM)
MIC [10, 46]: 2 µg/mL (≈ 5.19 µM)
MIC [11, 47]: 64 µg/mL (≈ 166 µM)
MIC [11, 48]: 64 µg/mL (≈ 166 µM)
MIC [11, 49]: > 64 µg/mL
MIC [11, 50]: > 64 µg/mL
MIC [11, 51]: > 64 µg/mL
MIC [11, 52]: > 64 µg/mL
MIC ([12]; 24 h, isolate 05-388, 24 hours): 16 µg/mL (≈ 41.5 µM)
MIC [12, 53]: 8 µg/mL (≈ 20.8 µM)
MIC [12, 54]: 8 µg/mL (≈ 20.8 µM)
MIC ([12]; 48 h, isolate 05-388, 48 hours): > 64 µg/mL
MIC [12, 55]: 64 µg/mL (≈ 166 µM)
MIC [12, 56]: > 64 µg/mL

O=C(CCCCCNC(=O)c1ccccc1S)Nc1cccnc1 [Compound 205, 2-Mercapto-N-[5-(pyridin-3-ylcarbamoyl)pentyl]benzamide]
MIC [1, 13]: > 64 µg/mL
MIC [1, 14]: 64 µg/mL (≈ 186 µM)
MIC [1, 15]: 64 µg/mL (≈ 186 µM)
MIC [1, 16]: > 64 µg/mL
MIC [1, 17]: 64 µg/mL (≈ 186 µM)
MIC [1, 18]: > 64 µg/mL
activity against the cell line U-87 [2]: most potent on an equimolar basis
MIC [3, 19]: 16 µg/mL (≈ 46.6 µM)
MIC [3, 20]: 8 µg/mL (≈ 23.3 µM)
MIC [3, 21]: 32 µg/mL (≈ 93.2 µM)
MIC [3, 22]: 16 µg/mL (≈ 46.6 µM)
MIC ([4]; 24 hours): 32 µg/mL (≈ 93.2 µM)
MIC ([4]; 48 hours): 32 µg/mL (≈ 93.2 µM)
MIC [5, 23]: 64 µg/mL (≈ 186 µM)
MIC [5, 24]: > 64 µg/mL
MIC [5, 25]: 32 µg/mL (≈ 93.2 µM)
MIC [5, 26]: > 64 µg/mL
MIC [5, 27]: > 64 µg/mL
MIC [5, 28]: 64 µg/mL (≈ 186 µM)
activity relative to an equimolar dose of SAHA ([6]; GBM xenograft, subcutaneous): more active than, an equimolar dose of SAHA
inhibition of GBM xenograft tumor volume [6]: inhibited the growth of GBM xenograft tumor volume; also recorded: active
MIC [7, 29]: 32 µg/mL (≈ 93.2 µM)
MIC [7, 30]: 32 µg/mL (≈ 93.2 µM)
MIC [7, 31]: 32 µg/mL (≈ 93.2 µM)
MIC [7, 32]: 32 µg/mL (≈ 93.2 µM)
MIC [7, 33]: 32 µg/mL (≈ 93.2 µM)
MIC [7, 34]: 32 µg/mL (≈ 93.2 µM)
MIC [8, 35]: 32 µg/mL (≈ 93.2 µM)
MIC [8, 36]: 32 µg/mL (≈ 93.2 µM)
MIC [8, 37]: 32 µg/mL (≈ 93.2 µM)
MIC [8, 38]: 64 µg/mL (≈ 186 µM)
MIC [8, 39]: 64 µg/mL (≈ 186 µM)
MIC [8, 40]: 64 µg/mL (≈ 186 µM)
inhibition of U87 GBM xenografts compared to control [9]: significant inhibition
MIC [10, 41]: 8 µg/mL (≈ 23.3 µM)
MIC [10, 42]: 32 µg/mL (≈ 93.2 µM)
MIC [10, 43]: 2 µg/mL (≈ 5.82 µM)
MIC [10, 44]: 16 µg/mL (≈ 46.6 µM)
MIC [10, 45]: 64 µg/mL (≈ 186 µM)
MIC [10, 46]: 4 µg/mL (≈ 11.6 µM)
MIC [11, 47]: 32 µg/mL (≈ 93.2 µM)
MIC [11, 48]: 32 µg/mL (≈ 93.2 µM)
MIC [11, 49]: 32 µg/mL (≈ 93.2 µM)
MIC [11, 50]: 64 µg/mL (≈ 186 µM)
MIC [11, 51]: > 64 µg/mL
MIC [11, 52]: 64 µg/mL (≈ 186 µM)
MIC ([12]; 24 h, isolate 05-388, 24 hours): 16 µg/mL (≈ 46.6 µM)
MIC [12, 53]: 16 µg/mL (≈ 46.6 µM)
MIC [12, 54]: 8 µg/mL (≈ 23.3 µM)
MIC ([12]; 48 h, isolate 05-388, 48 hours): > 64 µg/mL
MIC [12, 55]: > 64 µg/mL
MIC [12, 56]: > 64 µg/mL
